In ChEMBL document CHEMBL6087454, “Identification of Novel Organo-Se BTSA-Based Derivatives as Potent, Reversible, and Selective PPARγ Covalent Modulators for Antidiabetic Drug Discovery” (J Med Chem, 2025) one finds Activity, inhibition and Ki data, which are given here for one molecule.

For data set [1], the system named is 3T3-L1. The experiment in a line: Insulin sensitizing activity in mouse 3T3-L1 cells assessed as upregulation of adiponectin gene expression at 1 uM measured after 48 hrs by RT-qPCR analysis. It is filed as functional, cell-based.
The subject of data set [2] is Mus musculus. The experiment in a line: Antidiabetic activity in male db/db mouse model assessed as upregulation of adiponectin gene expression in white adipose tissue at 2.5 to 10 mg/kg/day, ip administered for 4 weeks by RT-qPCR analysis. Type of data set: functional, organism-based. The following applies: dose 2.5-10 mg/kg/day.
Data set [3] concerns Mus musculus. The experiment in a line: Antidiabetic activity in male db/db mouse model assessed as improvement in glucose tolerance at 2.5 to 10 mg/kg/day, ip preadministered for 4 weeks followed by glucose administration after 4 to 6 hrs of fasting and measured after 120 mins by intraperitoneal glucose tolerance test. It is filed as functional, organism-based. Particulars: dose 2.5-10 mg/kg/day.

Data set [4] concerns Mus musculus. The experiment in a line: Antidiabetic activity in male db/db mouse model assessed as increase in Glut4 protein abundance in liver at 2.5 to 10 mg/kg/day, ip administered for 4 weeks by Western blotting analysis. The following applies: dose 2.5-10 mg/kg/day. It is filed as functional, organism-based.
The test system of data set [5] is Mus musculus. The experiment in a line: Antidiabetic activity in male db/db mouse model assessed as downregulation of PTP1B gene expression in liver at 2.5 to 10 mg/kg/day, ip administered for 4 weeks by RT-qPCR analysis. It is filed as functional, organism-based. Particulars: dose 2.5-10 mg/kg/day.
Data set [6] can be described thus: Toxicity in male db/db mouse model assessed as effect on heart weight at 2.5 to 10 mg/kg/day, ip administered for 4 weeks. Particulars: in vivo, 672 h, dose 2.5-10 mg/kg/day. Type of data set: organism-based.
The test system of data set [7] is Mus musculus. The experiment in a line: Antidiabetic activity in male db/db mouse model assessed as upregulation of Glut4 gene expression in liver at 2.5 to 10 mg/kg/day, ip administered for 4 weeks by RT-qPCR analysis. Type of data set: functional, organism-based. The following applies: dose 2.5-10 mg/kg/day.
Data set [8] relates to Mus musculus. The experiment in a line: In vivo inhibition of Erk/Cdk5-mediated PPAR-gamma phosphorylation at Ser273 residue in male db/db mouse model assessed as decrease in phosphorylated-ERK expression in liver at 2.5 to 10 mg/kg/day, ip administered for 4 weeks by Western blotting analysis. Type of data set: functional, organism-based. The following applies: dose 2.5-10 mg/kg/day.

Data set [9] has as its target T1, Peroxisome proliferator-activated receptor delta (Homo sapiens) (UniProt Q03181).
T1 sequence (whole entry): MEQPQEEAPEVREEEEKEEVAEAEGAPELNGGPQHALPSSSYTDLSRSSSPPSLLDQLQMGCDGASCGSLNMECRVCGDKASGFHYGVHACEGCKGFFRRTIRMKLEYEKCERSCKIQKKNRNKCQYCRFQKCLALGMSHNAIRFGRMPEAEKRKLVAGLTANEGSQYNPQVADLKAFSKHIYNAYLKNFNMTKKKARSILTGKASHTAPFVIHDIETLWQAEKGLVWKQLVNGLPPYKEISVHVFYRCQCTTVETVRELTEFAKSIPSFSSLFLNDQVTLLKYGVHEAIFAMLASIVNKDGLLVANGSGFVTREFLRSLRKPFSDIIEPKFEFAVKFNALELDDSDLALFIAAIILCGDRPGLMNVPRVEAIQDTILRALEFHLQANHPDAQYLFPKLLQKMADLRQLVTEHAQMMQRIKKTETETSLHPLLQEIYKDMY
In words: Binding affinity to PPAR-delta (unknown origin) at 0.5 uM in presence of fluormone pan-PPAR green tracer by TR-FRET assay.

For data set [10], the system named is 3T3-L1. In words: Inhibition of adipogenesis in mouse 3T3-L1 cells assessed as downregulation of LPL gene expression at 1 uM measured after 48 hrs by RT-qPCR analysis. It is filed as functional, cell-based.
Data set [11] has as its system Mus musculus. The experiment in a line: Antidiabetic activity in male db/db mouse model assessed as downregulation of CD36 gene expression in liver at 2.5 to 10 mg/kg/day, ip administered for 4 weeks by RT-qPCR analysis. It is filed as functional, organism-based. The following applies: dose 2.5-10 mg/kg/day.
Data set [12] deals with Mus musculus. The experiment in a line: Antidiabetic activity in male db/db mouse model assessed as downregulation of PPARgamma gene expression in liver at 2.5 to 10 mg/kg/day, ip administered for 4 weeks by RT-qPCR analysis. It is filed as functional, organism-based. Particulars: dose 2.5-10 mg/kg/day.
In data set [13] the test system is Mus musculus. In words: Antidiabetic activity in male db/db mouse model assessed as increase in ANGPTL4 protein abundance in liver at 2.5 to 10 mg/kg/day, ip administered for 4 weeks by Western blotting analysis. It is filed as functional, organism-based. The following applies: dose 2.5-10 mg/kg/day.
The test system of data set [14] is Mus musculus. In words: Antidiabetic activity in male db/db mouse model assessed as downregulation of SOCS3 gene expression in white adipose tissue at 2.5 to 10 mg/kg/day, ip administered for 4 weeks by RT-qPCR analysis. It is filed as functional, organism-based. Particulars: dose 2.5-10 mg/kg/day.
Data set [15] deals with Mus musculus. In words: In vivo inhibition of Erk/Cdk5-mediated PPAR-gamma phosphorylation at Ser273 residue in male db/db mouse model assessed as decrease in phosphorylated-MEK expression in white adipose tissue at 2.5 to 10 mg/kg/day, ip administered for 4 weeks by Western blotting analysis. Type of data set: functional, organism-based. The following applies: dose 2.5-10 mg/kg/day.

Data set [16] deals with T2, Peroxisome proliferator-activated receptor gamma (Homo sapiens) (UniProt P37231).
T2 sequence (whole entry): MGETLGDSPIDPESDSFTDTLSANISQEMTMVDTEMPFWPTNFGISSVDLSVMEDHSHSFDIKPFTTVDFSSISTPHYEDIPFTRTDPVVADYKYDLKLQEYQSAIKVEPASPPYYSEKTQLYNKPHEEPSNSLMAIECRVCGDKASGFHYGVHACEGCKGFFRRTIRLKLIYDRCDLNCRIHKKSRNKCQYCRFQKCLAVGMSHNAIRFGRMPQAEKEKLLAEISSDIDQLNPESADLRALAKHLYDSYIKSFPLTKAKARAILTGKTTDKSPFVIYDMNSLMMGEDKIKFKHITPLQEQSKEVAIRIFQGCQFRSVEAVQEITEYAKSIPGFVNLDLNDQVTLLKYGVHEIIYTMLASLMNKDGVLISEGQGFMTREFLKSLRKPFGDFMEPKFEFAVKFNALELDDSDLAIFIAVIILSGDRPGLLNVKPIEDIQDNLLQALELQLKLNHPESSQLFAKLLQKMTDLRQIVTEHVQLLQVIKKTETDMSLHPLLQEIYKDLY
In words: Reversible covalent binding affinity to full-length human PPAR-gamma transfected in […] cells at 5 to 60 nM preincubated for 6 hrs followed by rosiglitazone addition and measured after 24 hrs by Firefly and Renilla-Glo luciferase reporter assay. It is filed as cell-based. The following applies: filed as partial agonist, dose 5-60 nM, time 30.0 hrs.

Data set [17] deals with 3T3-L1. The experiment in a line: Inhibition of adipogenesis in mouse 3T3-L1 cells assessed as downregulation of FASN gene expression at 1 uM measured after 48 hrs by RT-qPCR analysis. It is filed as functional, cell-based.
The target of data set [18] is T3, Peroxisome proliferator-activated receptor gamma (Homo sapiens, UniProt P37231).
T3 sequence (P37231 whole entry): T2 sequence (whole entry)
The experiment in a line: Binding affinity to recombinant GST-tagged human PPAR-gamma ligand binding domain (E235 to Y505 residues) extracted from Escherichia coli BL21 (DE3) cells assessed as inhibition constant in presence of fluormone pan-PPAR green tracer by TR-FRET assay.

The test system of data set [19] is Mus musculus. In words: Antidiabetic activity in male db/db mouse model assessed as downregulation of PTP1B gene expression in white adipose tissue at 2.5 to 10 mg/kg/day, ip administered for 4 weeks by RT-qPCR analysis. It is filed as functional, organism-based. Particulars: dose 2.5-10 mg/kg/day.
The subject of data set [20] is Mus musculus. The experiment in a line: Antidiabetic activity in male db/db mouse model assessed as downregulation of aP2 gene expression in liver at 2.5 to 10 mg/kg/day, ip administered for 4 weeks by RT-qPCR analysis. It is filed as functional, organism-based. Particulars: dose 2.5-10 mg/kg/day.

The source made the active and inactive calls. No cut-off for these calls is given here.

Regarding `Cc1ccc(S(=O)(=O)Oc2ccc(S3(=O)=N[Se]c4cc(OS(=O)(=O)c5ccc(C)cc5)ccc43)cc2)cc1` (stereo not given), the outcome in [1], in data set [2], in data set [4], in data set [5], in data set [7] and in data set [11] was Active. The result in data set [12], in data set [13], in data set [14], in [16], in data set [19] and in data set [20] was Active. In addition, the values for the Activity entry in data set [3] and in data set [6] were “Active; Superior To That Of Reference Compound Gw9662” and “Non-toxic”, respectively. The inhibition result in [8], in data set [10], in data set [15] and in [17] was “Active” in each case. In addition, the outcome in data set [9] was inactive. Also, in data set [18], the Ki worked out at 124 nM.
